Source: patent US4797395A, “1-Acyloxyalkyl esters of cephalosporin” (Takeda Chemical Industries, Ltd., priority 1983, dated 1989)
Where a name gives a salt, the structure may show the parent alone. Read-outs that look alike come from different tables or passages of the source.

What was measured:
[1] = mouse, in vivo
Procedure: The compounds of Examples (compound Nos. 1, 2, 3, 4, 5, 6, 7 and 8) and, as a control compound, the pivaloyloxymethyl ester of compound [II] (hereinafter referred to briefly as compound A) are administered orally to mice, each compound to one animal, in the dose of 100 mg/kg in terms of the non-ester, i.e. compound [II]. At 0.25, 0.5, 1.0 and 2.0 hours after administration, the concentration of compound [II] in the plasma of each mouse is measured by the cup method using Proteus mirabilis Eb 313 as the test organism and the area under plasma concentration-time curve from zero to 2 hours (AUC) is calculated. As a control, compound [II] is subcutaneously administered to a mouse and the AUC value is calculated as above. The bioavailability is calculated by means of the following equation. [formula]

Proteus morganii = conditions: gram-negative; Antimicrobial Agent and Chemotherapy 14, 557-568 (1978); cited from earlier work
Klebsiella pneumoniae = conditions: gram-negative; Antimicrobial Agent and Chemotherapy 14, 557-568 (1978); cited from earlier work
Proteus vulgaris = conditions: gram-negative; Antimicrobial Agent and Chemotherapy 14, 557-568 (1978); cited from earlier work
Proteus mirabilis = conditions: gram-negative; Antimicrobial Agent and Chemotherapy 14, 557-568 (1978); cited from earlier work
Staphylococcus aureus = conditions: gram-positive; Antimicrobial Agent and Chemotherapy 14, 557-568 (1978); cited from earlier work
Escherichia coli = conditions: gram-negative; Antimicrobial Agent and Chemotherapy 14, 557-568 (1978); cited from earlier work

With `CCC(OC(=O)C1=C(CSc2nnnn2CCN(C)C)CS[C@@H]2[C@H](NC(=O)Cc3csc(N)n3)C(=O)N12)OC(=O)C1CCCCC1.Cl.Cl` (stereo partly drawn) [compound 3, 1-(Cyclohexylcarbonyloxy)propyl 7β-[2-(2-amino-thiazol-4-yl)acetamido]-3-[[[1-(2-dimethylaminoethyl) -1H-tetrazol-5-yl]thio]methyl]ceph-3-em-4-carboxylate dihydrochloride] the Bioavailability ([1]; 100 mg/kg, 120 min) was 86.4%, the “Plasma level of non-ester (compound [II]), 0.25 hr” value (“Plasma level of non-ester … 0.25 hr” for short) ([1]; po, 100 mg/kg, 15 min) was 59500 ng/mL and the “Plasma level of non-ester (compound [II]), 0.5 hr” value (from here on “Plasma level of non-ester … 0.5 hr”) ([1]; po, 100 mg/kg, 30 min) was 25000 ng/mL. The “Plasma level of non-ester (compound [II]), 1.0 hr” value (“Plasma level of non-ester … 1.0 hr” for short) ([1]; po, 100 mg/kg, 60 min) was 11700 ng/mL, the AUC ([1]; po, 100 mg/kg, 120 min) was 33500 ng·h/mL and the “Plasma level of non-ester (compound [II]), 2.0 hr” value (“Plasma level of non-ester … 2.0 hr” for short) ([1]; po, 100 mg/kg, 120 min) was 1000 ng/mL.
For `CN(C)CCn1nnnc1SCC1=C(C(=O)OC(OC(=O)C2CCCCC2)C2CCCCC2)N2C(=O)[C@@H](NC(=O)Cc3csc(N)n3)[C@H]2SC1.Cl.Cl` (stereo partly drawn) [compound 2, 1-(Cyclohexylcarbonyloxy)-1-cyclohexylmethyl 7β-[2-(2-aminothiazol-4-yl)acetamido]-3-[[[1-(2-dimethylaminoethyl) -1H-tetrazol-5-yl]thio]methyl]ceph-3-em-4-carboxylate dihydrochloride], the Bioavailability ([1]; 100 mg/kg, 120 min) was 107.8%, the “Plasma level of non-ester … 0.25 hr” value ([1]; po, 100 mg/kg, 15 min) was 46100 ng/mL and the “Plasma level of non-ester … 0.5 hr” value ([1]; po, 100 mg/kg, 30 min) was 32200 ng/mL. For the same molecule, the “Plasma level of non-ester … 1.0 hr” value ([1]; po, 100 mg/kg, 60 min) was 21200 ng/mL, the AUC ([1]; po, 100 mg/kg, 120 min) was 41900 ng·h/mL and the “Plasma level of non-ester … 2.0 hr” value ([1]; po, 100 mg/kg, 120 min) was 4700 ng/mL.
With `CC(C)C(OC(=O)C1=C(CSc2nnnn2CCN(C)C)CS[C@@H]2[C@H](NC(=O)Cc3csc(N)n3)C(=O)N12)OC(=O)C1CCCCC1.Cl.Cl` (stereo partly drawn) [Compound No. 1, 1-(Cyclohexylcarbonyloxy)-2-methylpropyl 7β-[2-(2-aminothiazol-4-yl)acetamido]-3-[[[1-(2-dimethylaminoethyl) -1H-tetrazol-5-yl]thio]methyl]ceph-3-em-4-carboxylate dihydrochloride] the Bioavailability ([1]; 100 mg/kg, 120 min) was 94.4%, the “Plasma level of non-ester … 0.25 hr” value ([1]; po, 100 mg/kg, 15 min) was 66300 ng/mL and the “Plasma level of non-ester … 0.5 hr” value ([1]; po, 100 mg/kg, 30 min) was 34500 ng/mL. For the same molecule, the “Plasma level of non-ester … 1.0 hr” value ([1]; po, 100 mg/kg, 60 min) was 8900 ng/mL, the AUC ([1]; po, 100 mg/kg, 120 min) was 36600 ng·h/mL and the “Plasma level of non-ester … 2.0 hr” value ([1]; po, 100 mg/kg, 120 min) was 900 ng/mL.
With `CCCCC(=O)OC(OC(=O)C1=C(CSc2nnnn2CCN(C)C)CS[C@@H]2[C@H](NC(=O)Cc3csc(N)n3)C(=O)N12)C1CCCCC1.Cl.Cl` (stereo partly drawn) [Compound No. 7, 1-n-Pentanoyloxy-1-cyclohexylmethyl 7β-[2-(2-aminothiazol-4-yl)acetamido]-3-[[[1-(2-dimethylaminoethyl)-1H-tetrazol-5-yl]thio]methyl]ceph-3-em-4-carboxylate dihydrochloride] the Bioavailability ([1]; 100 mg/kg, 120 min) was 88.9%, the “Plasma level of non-ester … 0.25 hr” value ([1]; po, 100 mg/kg, 15 min) was 36400 ng/mL and the “Plasma level of non-ester … 0.5 hr” value ([1]; po, 100 mg/kg, 30 min) was 30000 ng/mL. The “Plasma level of non-ester … 1.0 hr” value ([1]; po, 100 mg/kg, 60 min) was 17000 ng/mL, the AUC ([1]; po, 100 mg/kg, 120 min) was 34500 ng·h/mL and the “Plasma level of non-ester … 2.0 hr” value ([1]; po, 100 mg/kg, 120 min) was 3200 ng/mL.
In the case of `CCCC(=O)OC(OC(=O)C1=C(CSc2nnnn2CCN(C)C)CS[C@@H]2[C@H](NC(=O)Cc3csc(N)n3)C(=O)N12)C1CCCCC1` (stereo partly drawn) [Compound No. 8, 1-n-Butyryloxy-1-cyclohexylmethyl 7β-[2-(2-aminothiazol-4-yl)acetamido]-3-[[[1-(2-dimethylaminoethyl) -1H-tetrazol-5-yl]thio]methyl]ceph-3-em-4-carboxylate dihydrochloride], the Bioavailability ([1]; 100 mg/kg, 120 min) is reported as 103.5%, the “Plasma level of non-ester … 0.25 hr” value ([1]; po, 100 mg/kg, 15 min) is reported as 50000 ng/mL and the “Plasma level of non-ester … 0.5 hr” value ([1]; po, 100 mg/kg, 30 min) is reported as 39600 ng/mL. For the same molecule, the “Plasma level of non-ester … 1.0 hr” value ([1]; po, 100 mg/kg, 60 min) was 15600 ng/mL, the AUC ([1]; po, 100 mg/kg, 120 min) was 40200 ng·h/mL and the “Plasma level of non-ester … 2.0 hr” value ([1]; po, 100 mg/kg, 120 min) was 2330 ng/mL.
In the case of `CCCC(OC(=O)C1=C(CSc2nnnn2CCN(C)C)CS[C@@H]2[C@H](NC(=O)Cc3csc(N)n3)C(=O)N12)OC(=O)C1CCCCC1.Cl.Cl` (stereo partly drawn) [compound 4, 1-(Cyclohexylcarbonyloxy)butyl 7β-[2-(2-aminothiazol-4-yl)acetamido]-3-[[[1-(2-dimethylaminoethyl) -1H-tetrazol-5-yl]thio]methyl]ceph-3-em-4-carboxylate dihydrochloride], the Bioavailability ([1]; 100 mg/kg, 120 min) is reported as 98.8%, the “Plasma level of non-ester … 0.25 hr” value ([1]; po, 100 mg/kg, 15 min) is reported as 47000 ng/mL and the “Plasma level of non-ester … 0.5 hr” value ([1]; po, 100 mg/kg, 30 min) is reported as 38400 ng/mL. The “Plasma level of non-ester … 1.0 hr” value ([1]; po, 100 mg/kg, 60 min) was 14400 ng/mL, the AUC ([1]; po, 100 mg/kg, 120 min) was 38400 ng·h/mL and the “Plasma level of non-ester … 2.0 hr” value ([1]; po, 100 mg/kg, 120 min) was 2800 ng/mL.
For `CN(C)CCn1nnnc1SCC1=C(C(=O)O)N2C(=O)[C@@H](NC(=O)Cc3csc(N)n3)[C@H]2SC1` [compound [II]], the antibacterial activity (Proteus morganii) is listed as “potent antibacterial activity”, the “Plasma level of non-ester … 0.25 hr” value ([1]; sc, 0.25 h) is listed as 69200 ng/mL and the “Plasma level of non-ester … 0.5 hr” value ([1]; sc, 0.5 h) is listed as 29000 ng/mL. For the same molecule, the “Plasma level of non-ester … 1.0 hr” value ([1]; sc, 1 h) was 13200 ng/mL, the Bioavailability ([1]; sc, 120 min) was 100% and the “Plasma level of non-ester … 2.0 hr” value ([1]; sc, 2 h) was 1500 ng/mL. For the same molecule, the antibacterial activity (Klebsiella pneumoniae) was “potent antibacterial activity”, the antibacterial activity (Proteus vulgaris) was “potent antibacterial activity” and the antibacterial activity (Proteus mirabilis) was “potent antibacterial activity”. For the same molecule, the antibacterial activity (Staphylococcus aureus) was “potent antibacterial activity” and the antibacterial activity (Escherichia coli) was “potent antibacterial activity”.
With `CC(C)C(OC(=O)CC1CCCCC1)OC(=O)C1=C(CSc2nnnn2CCN(C)C)CS[C@@H]2[C@H](NC(=O)Cc3csc(N)n3)C(=O)N12.Cl.Cl` (stereo partly drawn) [compound 5, 1-(Cyclohexylacetoxy)-2-methylpropyl 7β-[2-(2-aminothiazol-4-yl)acetamido]-3-[[[1-(2-dimethylaminoethyl) 1H-tetrazol-5-yl]thio]methyl]ceph-3-em-4-carboxylate dihydrochloride] the Bioavailability ([1]; 100 mg/kg, 120 min) was 88.8%, the “Plasma level of non-ester … 0.25 hr” value ([1]; po, 100 mg/kg, 15 min) was 29200 ng/mL and the “Plasma level of non-ester … 0.5 hr” value ([1]; po, 100 mg/kg, 30 min) was 46700 ng/mL. The “Plasma level of non-ester … 1.0 hr” value ([1]; po, 100 mg/kg, 60 min) was 11100 ng/mL, the AUC ([1]; po, 100 mg/kg, 120 min) was 34500 ng·h/mL and the “Plasma level of non-ester … 2.0 hr” value ([1]; po, 100 mg/kg, 120 min) was 2600 ng/mL.
With `CN(C)CCn1nnnc1SCC1=C(C(=O)OCOC(=O)C(C)(C)C)N2C(=O)[C@@H](NC(=O)Cc3csc(N)n3)[C@H]2SC1` [compound A, reference compound] the Bioavailability ([1]; 100 mg/kg, 120 min) was 41.8%, the “Plasma level of non-ester … 0.25 hr” value ([1]; po, 100 mg/kg, 15 min) was 21000 ng/mL and the “Plasma level of non-ester … 0.5 hr” value ([1]; po, 100 mg/kg, 30 min) was 16200 ng/mL. For the same molecule, the “Plasma level of non-ester … 1.0 hr” value ([1]; po, 100 mg/kg, 60 min) was 6100 ng/mL and the “Plasma level of non-ester … 2.0 hr” value ([1]; po, 100 mg/kg, 120 min) was 600 ng/mL.
